Key:
IDH2-R140Q = target: T1, IDH2-R140Q (Homo sapiens, UniProt P48735, R140Q); assay: Fluorescent determination of IDH2-R140Q cell activity (2-HG in U87MGR140Q cells); assay type: cell-based; conditions: 72 hours incubation, read-out: IC50 (2-HG inhibition)
T1 construct: expressed in transfected cells
T1 sequence (P48735 40-452 R140Q): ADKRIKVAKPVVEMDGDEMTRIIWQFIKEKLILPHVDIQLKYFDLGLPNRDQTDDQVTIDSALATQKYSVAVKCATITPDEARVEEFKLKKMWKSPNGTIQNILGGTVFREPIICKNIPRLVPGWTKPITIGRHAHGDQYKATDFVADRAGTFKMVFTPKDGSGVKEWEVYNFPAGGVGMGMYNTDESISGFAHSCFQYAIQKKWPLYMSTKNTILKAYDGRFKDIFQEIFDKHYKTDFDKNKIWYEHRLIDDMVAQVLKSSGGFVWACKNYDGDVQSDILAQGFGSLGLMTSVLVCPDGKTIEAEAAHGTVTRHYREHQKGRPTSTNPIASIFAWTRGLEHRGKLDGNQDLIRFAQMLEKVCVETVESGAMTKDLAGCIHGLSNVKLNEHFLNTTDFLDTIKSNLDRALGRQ

IDH1-R132H = target: T2, IDH1-R132H (Homo sapiens, UniProt O75874, R132H); assay: Fluorescent determination of IDH1-R132H cell activity (2-HG in U87MGR132H cells); assay type: cell-based; conditions: 2-HG inhibition in U87MGR132H cells transfected with IDH1-R132H mutant plasmid
T2 construct: expressed in transfected cells; host or cells: U87MG cells (U87MGR132H)

[1] = Metabolic stability test in liver microsomes (mouse); assay type: in vitro ADME; conditions: percentage of remaining compound after incubation for 30 minutes vs 0 minute; 1 μM compound; 0.5 mg/mL liver microsomes; 37° C.
Description: (§1) Male CD1 mouse liver microsomes was supplied by Research Institute for Liver Diseases (Shanghai) Co., Ltd. Male SD rat liver microsomes was supplied by BioreclamationIVT in US.
(§2) Phenacetin, glucose-6-phosphate (G-6-P), glucose-6-phosphate dehydrogenase (G-6-PD), and nicotinamide adenine dinucleotide phosphate (NADP) were supplied by Sigma-Aldrich (Missouri, USA).
(§3) 10 mM stock solution of test compound: Certain amount of test compound was weighed and dissolved in certain volume of dimethylsulfoxide (DMSO) to get the stock solution of test compound at 10 mM.
(§4) Reaction termination solution: Certain amount of phenacetin as internal standard was weighed and dissolved in acetonitrile to get the reaction termination solution at 1000 ng/mL, and stored at room temperature for use.
(§5) The stock solution of test compound was diluted to the designated concentration with organic solution (usually the mixtures of acetonitrile, methanol and water with different portions depending on the compound solution) to make the final concentration to be 1 μM and the contents of organic solvents no more than 1% (For DMSO, the controlled margin was 0.1%) in the final incubation system. 100 mM NADP, 500 mM G-6-P and 100 U/mL G-6-PDH were mixed and diluted with ultrapure water to provide the NADPH regenerating system containing 1 mM NADP, 5 mM G-6-P and 1 U/mL G-6-PD, which was pre-incubated at 37° C. water-bath for 10 min and then cooled on ice until being added into the reaction system. 20 mg/mL liver microsomes was mixed with 200 mM PBS and diluted with ultrapure water to make the concentrations of liver microsomes and PBS to be 0.5 mg/mL and 50 mM in the final incubation system, respectively. After the diluted liver microsomes was mixed with the NADPH regenerating solution, certain volumes of 100 mM EDTA and 300 mM MgCl2 (concentration of EDTA and MgCl2 in the final incubation system is 1 mM and 3 mM, respectively) were added, and the incubation system was put into 37° C. water bath. The incubation was commenced by adding the stock solution of test compound and maintained for 30 min. The incubation was terminated by adding the reaction termination solution. The 0 min sample was prepared by adding the reaction termination solution to the incubation system immediately prior to putting the system into the water bath with the addition of the stock solution of test compound. The terminated incubation mixtures were vortexed and centrifuged at 4400 rpm for 10 min, and the supernatant was collected for LC-MS/MS analysis.
(§6) The concentration of test compound was determined using LC-MS/MS method. Using the peak area ratio of the compound and the internal standard as an index, the percentage of remaining compound after incubation for 30 minutes as compared with the 0 minute sample was calculated, and the metabolic stability of the compound was evaluated.

[2] = Metabolic stability test in liver microsomes (rat); assay type: in vitro ADME; conditions: percentage of remaining compound after incubation for 30 minutes vs 0 minute; 1 μM compound; 0.5 mg/mL liver microsomes; 37° C.
Description: as §1, §2, §3, §4, §5, §6

T2 sequence (O75874 whole entry R132H): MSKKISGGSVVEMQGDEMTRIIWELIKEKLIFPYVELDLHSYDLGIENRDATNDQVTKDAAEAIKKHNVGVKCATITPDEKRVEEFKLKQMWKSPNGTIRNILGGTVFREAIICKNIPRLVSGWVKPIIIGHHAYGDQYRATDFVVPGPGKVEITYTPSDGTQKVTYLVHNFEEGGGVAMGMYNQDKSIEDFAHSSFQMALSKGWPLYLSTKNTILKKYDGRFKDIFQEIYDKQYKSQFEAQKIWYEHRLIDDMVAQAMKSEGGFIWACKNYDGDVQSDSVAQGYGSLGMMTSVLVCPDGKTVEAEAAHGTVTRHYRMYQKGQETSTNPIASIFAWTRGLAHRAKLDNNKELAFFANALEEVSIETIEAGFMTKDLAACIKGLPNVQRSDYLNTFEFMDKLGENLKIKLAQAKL

SMILES | IC50 (IDH2-R140Q) [nM] | IC50 (IDH1-R132H) [nM] | Mouse liver microsome stability [1] [%] | Rat liver microsome stability [2] [%]
C[C@@H](Nc1nc(NC2CCC2)nc(C2=CC(O)CCC2)n1)C(F)(F)F (mixture of isomers) [Compound 128] | 92 | – | 15.9 | 34.0
C[C@H](Nc1nc(N[C@H](C)C(F)(F)F)nc(C2=C(F)C(O)CCC2)n1)C(F)(F)F (mixture of isomers) [Compound 11] | 284 | 1020 | 80.3 | 87.6
[2H]C1(O)CCCC(c2nc(N[C@H](C)C(F)(F)F)nc(N[C@H](C)C(F)(F)F)n2)=C1F (mixture of isomers) [Compound 18] | 110 | 219 | 82.7 | 91.5
CC(C)Nc1nc(N[C@H](C)C(F)(F)F)nc(C2=CC(O)CCC2)n1 (mixture of isomers) [Compound 124, 3-(4-(Isopropylamino)-6-(((R)-1,1,1-trifluoropropan-2-yl)amino)-1,3,5-triazin-2-yl)cyclohex-2-en-1-ol] | 137 | 658 | 44.1 | 74.1
OC1C(F)=C(c2nc(NC3CC(F)(F)C3)nc(NC3CC(F)(F)C3)n2)CCC1F (single isomer, unassigned) [Compound 202] | 383 | 1100 | 96.4 | 94.2
CC(C)Nc1nc(N[C@H](C)C(F)(F)F)nc(C2=C(F)C(O)CCC2)n1 (mixture of isomers) [Compound 1, 2-Fluoro-3-(4-(isopropylamino)-6-(((R)-1,1,1-trifluoropropan-2-yl)amino)-1,3,5-triazin-2-yl)cyclohex-2-en-1-ol] | 97 | – | 83.5 | 73.8
[2H]C1([2H])CCC(c2nc(N[C@H](C)C(F)(F)F)nc(N[C@H](C)C(F)(F)F)n2)=C(F)C1([2H])O (mixture of isomers) [Compound 83, 3-(4,6-bis(((R)-1,1,1-trifluoropropan-2-yl)amino)-1,3,5-triazin-2-yl)-2-fluorocyclohex-2-en-1,6,6-D3-1-ol] | – | – | 83.7 | 96.6
[2H]C1(O)C(F)=C(c2nc(N[C@H](C)C(F)(F)F)nc(N[C@H](C)C(F)(F)F)n2)CCC1F (stereo partly drawn) [Compound 266, 3-(4,6-Bis(((R)-1,1,1-trifluoropropan-2-yl)amino)-1,3,5-triazin-2-yl)-2,6-difluorocyclohex-2-en-1-D-1-ol] | – | – | 91.5 | 98.2
[2H]C1([2H])CCC(c2nc(NC3CC(F)(F)C3)nc(N[C@@H](C)C(F)(F)F)n2)=C(F)C1([2H])O (mixture of isomers) [Compound 90] | – | – | 80.9 | 82.4

Now from value to compound:

IC50 (IDH2-R140Q) [nM] | IC50 (IDH1-R132H) [nM] | Mouse liver microsome stability [1] [%] | Rat liver microsome stability [2] [%] | SMILES
48 | 268 | 78.9 | 67.8 | [2H]C1([2H])CCC(c2nc(NC3CC(F)(F)C3)nc(N[C@@H](C)C(F)(F)F)n2)=C(F)C1O (stereo partly shown) [Compound 84]
58 | – | 70.5 | 86.6 | [2H]C1([2H])CCC(c2nc(NC3CC(F)(F)C3)nc(NC3CC(F)(F)C3)n2)=C(F)C1([2H])O (racemic) [Compound 91]
57 | 213 | 86.9 | 95.1 | C[C@@H](Nc1nc(NC2CC(F)(F)C2)nc(C2=C(F)C(O)C(F)(F)CC2)n1)C(F)(F)F (stereo partly drawn) [Compound 259, 3-(4-((3,3-Difluorocyclobutyl)amino)-6-(((R)-1,1,1-trifluoropropan-2-yl)amino)-1,3,5-triazin-2-yl)-2,6,6-trifluorocyclohex-2-en-1-ol]
45 | 109 | 79.3 | 91.6 | OC1C(F)=C(c2nc(NC3CC(F)(F)C3)nc(NC3CC(F)(F)C3)n2)CCC1F (single isomer, unassigned) [Compound 201]

From patent US12234211B2, “Cycloolefin substituted heteroaromatic compounds and their use” (HUTCHISON MEDIPHARMA LIMITED, priority 2017, dated 2025)
